Measured values: paper PMC10611619, “[^99mTc]Tc-PentixaTec: development, extensive pre-clinical evaluation, and first human experience” (European Journal of Nuclear Medicine and Molecular Imaging, 2023)
Where a SMILES comes first, the peptide text is derived from it. Side-chain parts run from the residue outwards. [ ]: non-standard residue; d: D form. The star is where a group is joined. 2Nal = N[C@@H](Cc1ccc2ccccc2c1)C(=O)O; dNMeOrn = CN[C@H](CCCN)C(=O)O; 4Abz = Nc1ccc(C(=O)O)cc1; X1 = NCCNCC(CNCCN)C(=O)*; dDap = NC[C@@H](N)C(=O)O

Experiments:
[1] = test system: Jurkat xenograft bearing CB17/SCID mice; experiment: Biodistribution in Jurkat xenograft-bearing mice, 1 h p.i.; type: in vivo; conditions: n = 5, mean ± SD
Method: Female CB17/SCID mice bearing subcutaneous Jurkat human T cell lymphoma xenografts (for more detailed information, see supplemental material) were injected intravenously with the respective ^99mTc-labeled tracer (5–20 MBq, 0.1–0.2 nmol/mouse) under isofluorane anesthesia and were sacrificed at 1 h post-injection (p.i.). The organs of interest were dissected, and the activity concentration in weighed tissue samples was quantified using a WIZARD^2® 2480 automatic γ-Counter from Perkin Elmer (Waltham MA, USA). Biodistribution data are given in %iD/g and represent means ± SD (groups of n = 4–5 animals). Statistical analysis (t-test) was performed using GraphPad Prism.
To establish tumor xenografts, Jurkat cells (2 – 3x10^7 cells) were suspended in a mixture of RPMI 1640 medium and Matrigel (1/1; v/v) (BD Biosciences, Heidelberg, Germany), and injected subcutaneously into the right shoulder of 6–10 weeks old CB17-SCID mice from either Charles River GmbH (Sulzfeld, Germany) or the in-house mouse breeding facility. As soon as tumors had grown to a diameter of 5–8 mm (4 – 10 weeks after inoculation), mice were used for the experiments.

[2] = test system: hCXCR4 expressing Chem-1 cells; experiment: Dual tracer internalization studies with [^125I]FC-131 as internal reference; type: cell-based, human
Method: Dual tracer internalization studies using [^125I]FC-131 as internal reference were conducted in hCXCR4 expressing Chem-1 cells in analogy to a previously established protocol. A detailed assay protocol is provided in the supplementary material section.
On the day prior to the experiment, Chem-1 cells were seeded in 24-well-plates at a density of app. 1·10^5 cells per well. On the day of the experiment, the culture medium was removed and the cells were washed once with 250 µL of unsupplemented medium before being left to equilibrate in 200 µL of assay medium (DMEM/F-12 containing 5% BSA) at 37°C for a minimum of 15 min before the experiment. Cells were then coincubated with the respective ^99mTc-labeled compound of interest (0.2 nM) and [^125I]FC-131 (0.2 nM) in the absence (total binding) or presence (non-specific binding) of 100 µM AMD3100 for different time points up to 120 min at 37°C (n=3 wells, respectively, per time point). Incubation was terminated by placing the plate on an ice pack for app. 1 min and by subsequent removal of the incubation medium. Cells were thoroughly rinsed with 250 µL of HBSS. After washing twice with 250 µL of ice cold acid wash buffer (0.02 M NaOAc buffered with AcOH to pH = 5), cells were lysed with 250 µL of 1 N NaOH. The lysate was tranferred to vials and combined with 250 µL of HBSS used for rinsing the wells. Quantification of the amount of free, acid-releasable and internalized ^99mTc- and ^125I-activity was performed using dual isotope protocol on a WIZARD^2® 2480 automatic γ-Counter (Perkin Elmer, Waltham MA, USA).
All data were corrected for non-specific internalization in the presence of […] AMD3100 and were then normalized to the specific internalization observed of the standard radioligand [^125I]FC-131.

[3] = Safety monitoring in patients (adverse events); type: in vivo, human
Method: Five patients (age, 48–72 y, median 66 y) with a history of hematological malignancy underwent imaging after intravenous injection of a median of 558 MBq (range, 417–601) [^99mTc]Tc-PentixaTec. […] Safety was assessed by monitoring adverse events after administration of [^99mTc]PentixaTec.

C[C@@H](NC(=O)[C@@H](CCCNC(=N)N)NC(=O)[C@@H](CN)NC(=O)C(CNCCN)CNCCN)C(=O)Nc1ccc(C(=O)NCCC[C@@H]2C(=O)N[C@@H](CCCNC(=N)N)C(=O)N[C@@H](Cc3ccc4ccccc4c3)C(=O)NCC(=O)N[C@H](Cc3ccc(O)cc3)C(=O)N2C)cc1 [[^99mTc]Tc-N4-L6-CPCR4, [^99mTc]Tc-N4-dap-r-a-Abz-CPCR4, metal not drawn] (cyclo([dY][dNMeOrn]([4Abz-dA-dR-dDap-X1])R[2Nal]G))
Biodistribution Tumor (tumor accumulation) ([1]; Jurkat xenograft): 8.6 ± 1.3 %iD/g | Biodistribution Muscle [1]: 0.3 ± 0.05 %iD/g | Biodistribution Spleen [1]: 5.6 ± 0.8 %iD/g | internalized activity in % of total cellular activity ([2]; 2 h): 97% | absolute intracellular tracer accumulation ([2]; 2 h, 37°, 0.2 nM): ~40 % of added dose | Internalization (% of reference) ([2]; 120 min, normalized to specific internalization of [^125I]FC-131, Chem-1 cells): 694 (120 min) % of reference | internalization area under the curve (AUC) ([2]; internalization kinetics, Fig. 1): 3799 | adverse events ([3]; five patients): no adverse events were recorded | tolerability ([3]; five patients with hematologic malignancies): well tolerated
